Test results reported in paper PMC7375528, “Piperidine scaffold as the novel P2-ligands in cyclopropyl-containing HIV-1 protease inhibitors: Structure-based design, synthesis, biological evaluation and docking study” (PLoS ONE, 2020).

Columns and labels:
[1] = target: T1, wild-type HIV-1 PR (Human immunodeficiency virus type 1 group M subtype B, UniProt P04585); assay: In vitro HIV-1 PR activity assay (FRET); format: biochemical
T1 construct: HIV-1 protease was cloned and heterologously expressed in Escherichia coli and purified; made in house; host or cells: Escherichia coli
Method: (§1) The inhibitory effect of all new designed inhibitors were measured using fluorescence resonance energy transfer (FRET) method. […] The energy transfer donor (EDANS) and acceptor (DABCYL) dyes are labeled at two ends of the peptide to perform FRET. Excitation and emission wavelengths were set at 340 nm and 490 nm. Inhibitors were dissolved in dimethylsulfoxide (DMSO) and diluted to appropriate concentrations. HIV-1 protease was cloned and heterologously expressed in Escherichia coli and purified. The experiment was carried out in 96-well plates. The FRET assay reaction buffer contained 0.1 M sodium acetate, 1 M sodium chloride, 1 mM ethylenediaminetetraacetic acid (EDTA), 1 mM dithiothreitol (DTT), 2% DMSO and 1 mg/mL bovine serum albumin (BSA) with an adjusted pH 4.7. Protease and inhibitor were mixed and incubated for 20–30 mins at room temperature and then the substrate was added. Each reaction was recorded for about 10 mins. From plots of concentration versus the calculated percent inhibition, IC50 values were determined.
as §1, with “20-30” for “20–30”, “mins.” for “mins. From plots of concentration versus the calculated percent inhibition, IC50 values were determined.”

[2] = Cytotoxicity assay (cell counting kit-8); format: cell-based; conditions: human; 293T cells, CCK-8, 24h exposure
Method: Selected inhibitors were further evaluated in cytotoxicity assay using a cell counting kit-8 assay. […] After 24h of culture, 1μL of drugs were added to each well. After another 24h of culture, 10 μL of CCK-8 was added to each well. Absorbance was quantified at wavelength 450 nm using an EnVision multilabel reader (PerkinElmer) after 2h at room temperature.

Structure (SMILES): CN1CCC[C@H](C(=O)N[C@@H](Cc2ccccc2)[C@H](O)CN(C2CC2)S(=O)(=O)c2ccc(C(F)(F)F)cc2)C1 [25b, (S)-N-((2S,3R)-4-((N-cyclopropyl-4-(trifluoromethyl)phenyl)sulfonamido)-3-hydroxy-1-phenylbutan-2-yl)-1-methylpiperidine-3-carboxamide]
- IC50 [1]: 110 ± 27.2 nM
- melting point: 102.7 to 104.6 °C

Structure (SMILES): O=C(N[C@@H](Cc1ccccc1)[C@H](O)CN(C1CC1)S(=O)(=O)c1ccc([N+](=O)[O-])cc1)[C@@H]1CCCNC1 [22c, (R)-N-((2S,3R)-4-((N-cyclopropyl-4-nitrophenyl)sulfonamido)-3-hydroxy-1-phenylbutan-2-yl)piperidine-3-carboxamide]
- IC50 [1]: 17 ± 8.12 nM
- melting point: 196.8 to 198.4 °C
- CC50 at 24 h [2]: > 100000 nM

Structure (SMILES): O=C(N[C@@H](Cc1ccccc1)[C@H](O)CN(C1CC1)S(=O)(=O)c1ccc(C(F)(F)F)cc1)[C@@H]1CCCNC1 [22b, (R)-N-((2S,3R)-4-((N-cyclopropyl-4-(trifluoromethyl)phenyl)sulfonamido)-3-hydroxy-1-phenylbutan-2-yl)piperidine-3-carboxamide]
- IC50 [1]: 8.35 ± 5.58 nM
- melting point: 204.8 to 206.3 °C
- CC50 at 24 h [2]: > 100000 nM

Structure (SMILES): COc1ccc(S(=O)(=O)N(C[C@@H](O)[C@H](Cc2ccccc2)NC(=O)[C@H]2CCCNC2)C2CC2)cc1 [23a, (S)-N-((2S,3R)-4-((N-cyclopropyl-4-methoxyphenyl)sulfonamido)-3-hydroxy-1-phenylbutan-2-yl)piperidine-3-carboxamide]
- IC50 [1]: 433 ± 97.5 nM
- melting point: 92.9 to 94.7 °C

Structure (SMILES): CN1CCC[C@H](C(=O)N[C@@H](Cc2ccccc2)[C@H](O)CN(C2CC2)S(=O)(=O)c2ccc(N)cc2)C1 [25d, (S)-N-((2S,3R)-4-((4-amino-N-cyclopropylphenyl)sulfonamido)-3-hydroxy-1-phenylbutan-2-yl)-1-methylpiperidine-3-carboxamide]
- IC50 [1]: 236 ± 36.5 nM
- melting point: 76.8 to 78.5 °C

Structure (SMILES): COc1ccc(S(=O)(=O)N(C[C@@H](O)[C@H](Cc2ccccc2)NC(=O)[C@H]2CCCN(C)C2)C2CC2)cc1 [25a, (S)-N-((2S,3R)-4-((N-cyclopropyl-4-methoxyphenyl)sulfonamido)-3-hydroxy-1-phenylbutan-2-yl)-1-methylpiperidine-3-carboxamide]
- IC50 [1]: 283 ± 36.4 nM
- melting point: 88.9 to 91.2 °C

Structure (SMILES): Nc1ccc(S(=O)(=O)N(C[C@@H](O)[C@H](Cc2ccccc2)NC(=O)C2CCNCC2)C2CC2)cc1 [26d, N-((2S,3R)-4-((4-amino-N-cyclopropylphenyl)sulfonamido)-3-hydroxy-1-phenylbutan-2-yl)piperidine-4-carboxamide]
- IC50 [1]: 245 ± 39.8 nM
- melting point: 204.7 to 206.5 °C

Structure (SMILES): Nc1ccc(S(=O)(=O)N(C[C@@H](O)[C@H](Cc2ccccc2)NC(=O)[C@@H]2CCCNC2)C2CC2)cc1 [22d, (R)-N-((2S,3R)-4-((4-amino-N-cyclopropylphenyl)sulfonamido)-3-hydroxy-1-phenylbutan-2-yl)piperidine-3-carboxamide]
- IC50 [1]: 10.1 ± 6.71 nM
- melting point: 216.5 to 218.3 °C
- CC50 at 24 h [2]: > 100000 nM

Structure (SMILES): COc1ccc(S(=O)(=O)N(C[C@@H](O)[C@H](Cc2ccccc2)NC(=O)C2CCNCC2)C2CC2)cc1 [26a, N-((2S,3R)-4-((N-cyclopropyl-4-methoxyphenyl)sulfonamido)-3-hydroxy-1-phenylbutan-2-yl)piperidine-4-carboxamide]
- IC50 [1]: 155 ± 15.1 nM
- melting point: 219.9 to 221.3 °C

Structure (SMILES): O=C(N[C@@H](Cc1ccccc1)[C@H](O)CN(C1CC1)S(=O)(=O)c1ccc(C(F)(F)F)cc1)[C@H]1CCCNC1 [23b, (S)-N-((2S,3R)-4-((N-cyclopropyl-4-(trifluoromethyl)phenyl)sulfonamido)-3-hydroxy-1-phenylbutan-2-yl)piperidine-3-carboxamide]
- IC50 [1]: 264 ± 69.1 nM
- melting point: 236.5 to 238.4 °C

Structure (SMILES): O=C(N[C@@H](Cc1ccccc1)[C@H](O)CN(C1CC1)S(=O)(=O)c1ccc([N+](=O)[O-])cc1)[C@H]1CCCNC1 [23c, (S)-N-((2S,3R)-4-((N-cyclopropyl-4-nitrophenyl)sulfonamido)-3-hydroxy-1-phenylbutan-2-yl)piperidine-3-carboxamide]
- IC50 [1]: 483 ± 103 nM
- melting point: 155.9 to 157.2 °C

Structure (SMILES): CN1CCC[C@@H](C(=O)N[C@@H](Cc2ccccc2)[C@H](O)CN(C2CC2)S(=O)(=O)c2ccc([N+](=O)[O-])cc2)C1 [24c, (R)-N-((2S,3R)-4-((N-cyclopropyl-4-nitrophenyl)sulfonamido)-3-hydroxy-1-phenylbutan-2-yl)-1-methylpiperidine-3-carboxamide]
- IC50 [1]: 39.5 ± 11.9 nM
- melting point: 159.9 to 161.2 °C

Structure (SMILES): Nc1ccc(S(=O)(=O)N(C[C@@H](O)[C@H](Cc2ccccc2)NC(=O)CN2CCCCC2)C2CC2)cc1 [27d, N-((2S,3R)-4-((4-amino-N-cyclopropylphenyl)sulfonamido)-3-hydroxy-1-phenylbutan-2-yl)-2-(piperidin-1-yl)acetamide]
- IC50 [1]: 34.7 ± 12.5 nM
- melting point: 144.4 to 146.2 °C

Structure (SMILES): O=C(CN1CCCCC1)N[C@@H](Cc1ccccc1)[C@H](O)CN(C1CC1)S(=O)(=O)c1ccc(C(F)(F)F)cc1 [27b, N-((2S,3R)-4-((N-cyclopropyl-4-(trifluoromethyl)phenyl)sulfonamido)-3-hydroxy-1-phenylbutan-2-yl)-2-(piperidin-1-yl)acetamide]
- IC50 [1]: 52.7 ± 14.7 nM
- melting point: 72.3 to 75.2 °C

Structure (SMILES): O=C(N[C@@H](Cc1ccccc1)[C@H](O)CN(C1CC1)S(=O)(=O)c1ccc([N+](=O)[O-])cc1)C1CCNCC1 [26c, N-((2S,3R)-4-((N-cyclopropyl-4-nitrophenyl)sulfonamido)-3-hydroxy-1-phenylbutan-2-yl)piperidine-4-carboxamide]
- IC50 [1]: 268 ± 37.8 nM
- melting point: 186.2 to 187.7 °C

Structure (SMILES): O=C(N[C@@H](Cc1ccccc1)[C@H](O)CN(C1CC1)S(=O)(=O)c1ccc(C(F)(F)F)cc1)C1CCNCC1 [26b, N-((2S,3R)-4-((N-cyclopropyl-4-(trifluoromethyl)phenyl)sulfonamido)-3-hydroxy-1-phenylbutan-2-yl)piperidine-4-carboxamide]
- IC50 [1]: 124 ± 27.6 nM
- melting point: 243.3 to 245.1 °C

Structure (SMILES): COc1ccc(S(=O)(=O)N(C[C@@H](O)[C@H](Cc2ccccc2)NC(=O)CN2CCCCC2)C2CC2)cc1 [27a, N-((2S,3R)-4-((N-cyclopropyl-4-methoxyphenyl)sulfonamido)-3-hydroxy-1-phenylbutan-2-yl)-2-(piperidin-1-yl)acetamide]
- IC50 [1]: 228 ± 45 nM
- melting point: 63.6 to 65.8 °C

Structure (SMILES): CN1CCC[C@@H](C(=O)N[C@@H](Cc2ccccc2)[C@H](O)CN(C2CC2)S(=O)(=O)c2ccc(N)cc2)C1 [24d, (R)-N-((2S,3R)-4-((4-amino-N-cyclopropylphenyl)sulfonamido)-3-hydroxy-1-phenylbutan-2-yl)-1-methylpiperidine-3-carboxamide]
- IC50 [1]: 16.3 ± 9.54 nM
- melting point: 75.8 to 77.3 °C
- CC50 at 24 h [2]: > 100000 nM

Structure (SMILES): Nc1ccc(S(=O)(=O)N(C[C@@H](O)[C@H](Cc2ccccc2)NC(=O)[C@H]2CCCNC2)C2CC2)cc1 [23d, (S)-N-((2S,3R)-4-((4-amino-N-cyclopropylphenyl)sulfonamido)-3-hydroxy-1-phenylbutan-2-yl)piperidine-3-carboxamide]
- IC50 [1]: 313 ± 58.1 nM
- melting point: 77.8 to 79.4 °C

Structure (SMILES): O=C(CN1CCCCC1)N[C@@H](Cc1ccccc1)[C@H](O)CN(C1CC1)S(=O)(=O)c1ccc([N+](=O)[O-])cc1 [27c, N-((2S,3R)-4-((N-cyclopropyl-4-nitrophenyl)sulfonamido)-3-hydroxy-1-phenylbutan-2-yl)-2-(piperidin-1-yl)acetamide]
- IC50 [1]: 288 ± 62 nM
- melting point: 82.9 to 84.1 °C

Structure (SMILES): CN1CCC[C@H](C(=O)N[C@@H](Cc2ccccc2)[C@H](O)CN(C2CC2)S(=O)(=O)c2ccc([N+](=O)[O-])cc2)C1 [25c, (S)-N-((2S,3R)-4-((N-cyclopropyl-4-nitrophenyl)sulfonamido)-3-hydroxy-1-phenylbutan-2-yl)-1-methylpiperidine-3-carboxamide]
- IC50 [1]: 523 ± 104 nM
- melting point: 133.2 to 134.8 °C
